Measurements reported in publication PMC8962251 (Biomedicines, 2022).
Bridges are numbered along the chain shown (N, C = ends). Roman numbers before positions name the chains, in order. [ ]: non-standard residue; d: D form. GABA = NCCCC(=O)O

Legend:
[1] = molecular target: SARS-CoV-2 S1S2 spike interaction with hACE2 (Severe acute respiratory syndrome coronavirus 2, UniProt P0DTC2); assay type: binding, SARS-CoV-2; human
SARS-CoV-2 S1S2 trimer = SARS-CoV-2 S1S2 trimer (Severe acute respiratory syndrome coronavirus 2, UniProt P0DTC2); assay type: binding
[2] = system: pre-formed complex of SARS-CoV-2 S1S2 monomer and hACE2; assay type: binding, SARS-CoV-2; human
SARS-CoV-2 RBD = SARS-CoV-2 RBD (Severe acute respiratory syndrome coronavirus 2, UniProt P0DTC2); assay type: binding
SARS-CoV-2 S1S2 monomer = SARS-CoV-2 S1S2 monomer (Severe acute respiratory syndrome coronavirus 2, UniProt P0DTC2); assay type: binding

C[C@@H](O)[C@H](NC(=O)[C@H](Cc1c[nH]c2ccccc12)NC(=O)[C@@H](NC(=O)[C@H](CC(=O)O)NC(=O)[C@H](CC(N)=O)NC(=O)[C@H](CCCCN)NC(=O)[C@H](CCCCN)NC(=O)[C@H](CC(=O)O)NC(=O)[C@H](Cc1ccc(O)cc1)NC(=O)[C@H](CCC(=O)O)NC(=O)[C@H](Cc1c[nH]c2ccccc12)NC(=O)[C@H](Cc1c[nH]c2ccccc12)NC(=O)[C@H](Cc1ccccc1)NC(=O)[C@H](CC(=O)O)NC(=O)[C@@H](N)Cc1c[nH]cn1)[C@@H](C)O)C(=O)N[C@@H](CCCNC(=N)N)C(=O)N[C@@H](CCCNC(=N)N)C(=O)N[C@@H](CCCNC(=N)N)C(=O)N[C@@H](CCCNC(=N)N)C(N)=O [CVRBDL-3]
saturation level of the inhibitory effect (% of S1S2 binding level without compound) [1]: ~ 58%
steady-state reduction of S1S2 binding signal to hACE2 [1]: ~ 33%

I: H-HDFWWEYDKKNDTWTR[GABA]R[GABA]RK-NH2 / II: H-HDFWWEYDKKNDTWTR[GABA]R[GABA]R (amide I:21-II:C) [CVRBDL-3_3]
% of theor. Rmax (SARS-CoV-2 S1S2 trimer): 76%
complex stability increase compared with CVRBDL-3 (factor) (SARS-CoV-2 S1S2 trimer): ~ 2.5
maximum displacement compared with CVRBDL-3 (factor) [2]: 1.6
DC50 ([2]; read-out: DC50 (compound concentration where 50% of the maximum displacement is reached)): 417 nM
increase of inhibition efficiency compared with CVRBDL-3 (factor) [1]: ~ 11
% of theor. Rmax (SARS-CoV-2 RBD): 65%
complex stability increase compared with CVRBDL-3 (factor) (SARS-CoV-2 RBD): ~ 2
% of theor. Rmax (SARS-CoV-2 S1S2 monomer): 104%
complex stability increase compared with CVRBDL-3 (factor) (SARS-CoV-2 S1S2 monomer): ~ 2.5
